Patent US10604527B2, “Pyrazine compounds for the treatment of hepatitis B infection” (Hoffmann-La Roche Inc., priority 2016, dated 2020)

The compounds below were run on HBV (assay: HBV inhibition assay in HepG2.2.15 cells (extracellular HBV DNA by qPCR)). Conditions: Hepatitis B virus, 120 h, extracellular HBV DNA in culture supernatant by qPCR, five days after compound treatment.
Type: cell-based
Experimental: HepG2.2.15 is a stably-transfected cell line containing the HBV genome. It is derived from the hepatoblastoma cell line Hep G2 (American Type Culture Collection, ATCC® HB-8065™) by the published procedures described in reference: M A Selles et al. Proc. Natl. Acad. Sci. USA 1987, 84, 1005-1009. The cell line was maintained in Dulbecco's modified Eagle's medium (DMEM)-F12 medium supplemented with 10% fetal bovine serum, 20 mM L-glutamine, 0.1 mM NEAA, 50 U/mL penicillin, 50 μg/mL streptomycin, and 0.3 mg/mL of G418.
HepG2.2.15 cells were seeded into 96-well plates at a density of 3×10^4 cells per well in 100 μL DMEM/F12 media (Life Science, Cat. #: 11320-033) supplemented with 2.5% fetal bovine serum, 20 mM L-glutamine, 0.1 mM NEAA, 50 U/mL penicillin, 50 U/mL streptomycin and cultured overnight at 37° C. The test compounds were serially half-log diluted in DMSO, then diluted 100 times in culture media. 100 μL diluted solution of tested compounds were added into the plates to reach 0.5% final concentration of DMSO in every well. Five days after compound treatment, culture supernatant was collected for further analysis.
For quantitative PCR detection of extracellular HBV DNA, culture supernatant was processed by 500 μg/mL Proteinase K (Sigma, Cat. #: P2308) digestion at 50° C. for 1 hour. After heat inactivation of the enzyme at 95° C. for 15 minutes, the samples were subjected to HBV DNA quantification by qPCR. The effective compound concentration at which HBV replication inhibited by 50% (EC50) was determined.
With `CC(C)NS(=O)(=O)c1cnn2c1CN(C(=O)Nc1ccc(F)c(Cl)c1)[C@@H](C)C2` [Example 25, (6S)-N-(3-chloro-4-fluoro-phenyl)-3-(isopropylsulfamoyl)-6-methyl-6,7-dihydro-4H-pyrazolo[1,5-a]pyrazine-5-carboxamide] the EC50 was 82 nM.
In the case of `C[C@H]1Cn2ncc(S(=O)(=O)N[C@H]3CCOC3)c2CN1C(=O)Nc1ccc(F)c(Cl)c1` [Example 26, (6S)-N-(3-chloro-4-fluoro-phenyl)-6-methyl-3-[[(3S)-tetrahydrofuran-3-yl]sulfamoyl]-6,7-dihydro-4H-pyrazolo[1,5-a]pyrazine-5-carboxamide], the EC50 is reported as 365 nM.
With `C[C@H]1Cn2ncc(S(=O)(=O)NC(C)(C)CO)c2CN1C(=O)Nc1cc(F)c(F)c(F)c1` [Example 27, (6S)-3-[(2-hydroxy-1,1-dimethyl-ethyl)sulfamoyl]-6-methyl-N-(3,4,5-trifluorophenyl)-6,7-dihydro-4H-pyrazolo[1,5-a]pyrazine-5-carboxamide] the EC50 was 156 nM.
With `C[C@H]1Cn2ncc(S(=O)(=O)N3CCC(F)(F)C3)c2CN1C(=O)Nc1cc(F)c(F)c(F)c1` [Example 28, (6S)-3-(3,3-difluoropyrrolidin-1-yl)sulfonyl-6-methyl-N-(3,4,5-trifluorophenyl)-6,7-dihydro-4H-pyrazolo[1,5-a]pyrazine-5-carboxamide] the EC50 was 168 nM.
`C[C@H]1Cn2ncc(S(=O)(=O)N3CC[C@@H](O)C3)c2CN1C(=O)Nc1cc(F)c(F)c(F)c1` [Example 29, (6S)-3-[(3R)-3-hydroxypyrrolidin-1-yl]sulfonyl-6-methyl-N-(3,4,5-trifluorophenyl)-6,7-dihydro-4H-pyrazolol[1,5-a]pyrazine-5-carboxamide] gave an EC50 of 146 nM.
For `C[C@H]1Cn2ncc(S(=O)(=O)N[C@@H]3CCOC3)c2CN1C(=O)Nc1cc(F)c(F)c(F)c1` [Example 30, (6S)-6-methyl-3-[[(3R)-tetrahydrofuran-3-yl]sulfamoyl]-N-(3,4,5-trifluorophenyl)-6,7-dihydro-4H-pyrazolo[1,5-a]pyrazine-5-carboxamide], the EC50 was 156 nM.
Work on `C[C@H]1Cn2ncc(S(=O)(=O)N3CC(F)(F)C3)c2CN1C(=O)Nc1cc(F)c(F)c(F)c1` [Example 31, (6S)-3-(3,3-difluoroazetidin-1-yl)sulfonyl-6-methyl-N-(3,4,5-trifluorophenyl)-6,7-dihydro-4H-pyrazolo[1,5-a]pyrazine-5-carboxamide] yielded an EC50 of 22 nM.
For `C[C@H]1Cn2ncc(S(=O)(=O)N3CCOCC3)c2CN1C(=O)Nc1cc(F)c(F)c(F)c1` [Example 32, (6S)-6-methyl-3-morpholinosulfonyl-N-(3,4,5-trifluorophenyl)-6,7-dihydro-4H-pyrazolo[1,5-a]pyrazine-5-carboxamide], the EC50 was 179 nM.
`C[C@H]1Cn2ncc(S(=O)(=O)N3CC[C@H](O)C3)c2CN1C(=O)Nc1cc(F)c(F)c(F)c1` [Example 33, (6S)-3-[(3S)-3-hydroxypyrrolidin-1-yl]sulfonyl-6-methyl-N-(3,4,5-trifluorophenyl)-6,7-dihydro-4H-pyrazolo[1,5-a]pyrazine-5-carboxamide] gave an EC50 of 145 nM.
Compound `C[C@H]1Cn2ncc(S(=O)(=O)C3CCC(O)C3)c2CN1C(=O)Nc1cc(F)c(F)c(F)c1` (stereo partly drawn) [Example 34, (6S)-3-(3-hydroxycyclopentyl)sulfonyl-6-methyl-N-(3,4,5-trifluorophenyl)-6,7-dihydro-4H-pyrazolo[1,5-a]pyrazine-5-carboxamide] has an EC50 of 96 nM.
Work on `C[C@H]1Cn2ncc(N(C)C(=O)OCc3ccccc3)c2CN1C(=O)Nc1cc(F)c(F)c(F)c1` [Example 37, Benzyl N-methyl-N-[(6S)-6-methyl-5-[(3,4,5-trifluorophenyl)carbamoyl]-6,7-dihydro-4H-pyrazolo[1,5-a]pyrazin-3-yl]carbamate] yielded an EC50 of 475 nM.
Compound `CC(=O)N(C)c1cnn2c1CN(C(=O)Nc1cc(F)c(F)c(F)c1)[C@@H](C)C2` [Example 38, (6S)-3-[acetyl(methyl)amino]-6-methyl-N-(3,4,5-trifluorophenyl)-6,7-dihydro-4H-pyrazolo[1,5-a]pyrazine-5-carboxamide] has an EC50 of 457 nM.
`COCCS(=O)(=O)N(C)c1cnn2c1CN(C(=O)Nc1cc(F)c(F)c(F)c1)[C@@H](C)C2` [Example 39, (6S)-3-[2-methoxyethylsulfonyl(methyl)amino]-6-methyl-N-(3,4,5-trifluorophenyl)-6,7-dihydro-4H-pyrazolo[1,5-a]pyrazine-5-carboxamide] was tested, and the EC50 was 664 nM.
`CCS(=O)(=O)N(C)c1cnn2c1CN(C(=O)Nc1cc(F)c(F)c(F)c1)[C@@H](C)C2` [Example 40, (6S)-3-[ethylsulfonyl(methyl)amino]-6-methyl-N-(3,4,5-trifluorophenyl)-6,7-dihydro-4H-pyrazolo[1,5-a]pyrazine-5-carboxamide] showed an EC50 of 169 nM.
In the case of `C[C@H]1Cn2ncc(N(C)S(=O)(=O)C3CC3)c2CN1C(=O)Nc1cc(F)c(F)c(F)c1` [Example 41, (6S)-3-[cyclopropylsulfonyl(methyl)amino]-6-methyl-N-(3,4,5-trifluorophenyl)-6,7-dihydro-4H-pyrazolo[1,5-a]pyrazine-5-carboxamide], the EC50 is reported as 86 nM.
